Laboratory results from article PMC7694207, “Functional Characterization of the N-Acetylmuramyl-L-Alanine Amidase, Ami1, from Mycobacterium abscessus” (Cells, 2020).
Non-standard residues stand in square brackets, D forms with d. Residues, ends and D or L forms follow the SMILES beside them.

How the values were obtained:
Ami1Mab [1] = target: T1, Ami1Mab (Mycobacteroides abscessus, UniProt B1MFL7); assay: TLC-based muramyl-dipeptide hydrolysis assay; format: biochemical; settings: substrate MDP; PBS; 37 °C; compound numbering as in Results
T1 construct: gene MAB_0318c; first 40 residues (signal peptide) removed; pET151 N-terminal tag cut by TEV; E. coli BL21(DE3) pRARE2; zinc enzyme

Ami1Mab [2] = target: T1, Ami1Mab; assay: X-ray co-crystal structure, […] Å; format: binding; settings: co-crystallized with 5 mM dipeptide; active site near Zn2+
Ami1Mab [3] = target: T1, Ami1Mab; assay: TLC hydrolysis assay, ninhydrin; format: biochemical; settings: PBS, 37 °C, 30 min; Zn2+-dependent
Ami1Mtb = target: T2, Ami1Mtb (Mycobacterium tuberculosis, UniProt I6Y4D2); format: biochemical
T2 construct: gene Rv3717

Ami1Mab [4] = target: T1, Ami1Mab; assay: TLC-based muramyl-dipeptide hydrolysis assay; format: biochemical; settings: substrate MDP; PBS; 37 °C
Ami1Mab [5] = target: T1, Ami1Mab; assay: TLC-based muramyl-dipeptide hydrolysis assay; format: biochemical; settings: substrate MDP; PBS; 37 °C; compound numbering as in Results; remark: listed apart in the source

T1 sequence (B1MFL7 entry or part of it): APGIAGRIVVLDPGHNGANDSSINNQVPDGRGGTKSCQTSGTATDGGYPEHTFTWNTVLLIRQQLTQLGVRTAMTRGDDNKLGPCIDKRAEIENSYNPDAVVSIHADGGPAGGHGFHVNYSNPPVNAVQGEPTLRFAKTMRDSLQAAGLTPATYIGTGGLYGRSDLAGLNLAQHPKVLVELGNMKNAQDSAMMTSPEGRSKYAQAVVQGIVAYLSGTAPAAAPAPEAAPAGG
T2 sequence (I6Y4D2 whole entry, looked up): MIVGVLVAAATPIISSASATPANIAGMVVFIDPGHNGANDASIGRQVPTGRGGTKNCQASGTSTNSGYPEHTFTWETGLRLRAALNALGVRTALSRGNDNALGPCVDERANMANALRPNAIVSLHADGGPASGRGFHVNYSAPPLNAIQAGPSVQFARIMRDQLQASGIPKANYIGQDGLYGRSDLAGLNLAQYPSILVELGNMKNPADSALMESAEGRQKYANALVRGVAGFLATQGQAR

O=C(O)c1ccnc(Cl)c1C(=O)O [compound 3, 2-chloropyridine-3,4-dicarboxylic acid]
inhibitory effect, starting between (Ami1Mab [1]): 250 to 500 µM

C[C@H](N)C(=O)N[C@H](CCC(=O)O)C(N)=O [L-Ala-D-IsoGln] (H-Ala-[dE]-NH2)
X-ray co-crystal structure, 1.7 Å (Ami1Mab [2]): The co-crystal structure of Ami1Mab bound to L-Ala-D-IsoGln was also solved

CC(=O)N[C@H]1C(O)O[C@H](CO)[C@@H](O)[C@@H]1O[C@H](C)C(=O)N[C@@H](C)C(=O)N[C@H](CCC(=O)O)C(N)=O (stereo partly drawn) [muramyl-dipeptide]
TLC hydrolysis assay, ninhydrin (Ami1Mab [3]): MDP was rapidly hydrolyzed by Ami1Mab
TLC hydrolysis assay, ninhydrin (Ami1Mtb): Activity of both Ami1Mab and Ami1Mtb is inhibited after incubation with EDTA

O=C(O)c1coc2ccnc(Cl)c12 [compound 1, 4-chlorofuro [3,2-c]pyridine-3-carboxylic acid]
inhibitory effect, starting at (Ami1Mab [4]): 150 to 200 µM

Nc1ccccc1-c1nn[nH]n1 [compound 2, 2-(1H-1,2,3,4-tetrazol-5-yl)aniline]
inhibitory activity starting at (Ami1Mab [5]): 800 µM
